One data set has as its system insulin mRNA. The data set is described as follows: Slot-blot quantitation of insulin mRNA in pancreata and islets. The format is in vivo, rat. Conditions: young and old animals, 48 hrs infusion, P<0.01. The source says:
(§1) The rats were implanted with an Alzet micro-osmotic pump (Alza Corp., Palo Alto, Calif.) in the interscapular region for 48 hrs. […] Control animals received normal saline in their pumps and received their infusion for the same length of time.
(§2) After an overnight fast, animals were sacrificed, pancreata were removed and frozen in liquid nitrogen as quickly as possible. RNA was extracted by homogenization in guanidinium isothiocyanate, followed by ultracentrifugation on a 5.7 M cesium chloride cushion (Glisin et al., 1974; Chigwin et al., 1979). Poly-A RNA was then prepared from total RNA by affinity chromatography using oligo (dT) columns (Biolabs INC, Beverly, Mass.). RNA was quantified by spectrophotometric analysis at […]. Slot-blot analysis using poly-A RNA was used for quantitation of mRNA levels of glucokinase, which is the main glucose sensor of the beta cell (Matschinsky, 1990), the three hexokinases, GLUT2, the major glucose transporter of the beta cell (Mueckler, 1990), and insulin. Four micrograms of poly-A RNA were diluted in 50 μl TE buffer (Tris-HCL 10 mM, EDTA 1 mM, pH 7.4), 20 μl of 37% formaldehyde and 20 μl of 10× SSC. Samples were incubated at 60° C. for 15 min and then diluted with 1 ml of ice-cold 10× SSC (1×SCC=0.15 M NaCl+0.015 sodium citrate). […]

In the next data set the test system is GLUT2 mRNA. The data set is described as follows: Slot-blot quantitation of GLUT2 mRNA in pancreata and islets. The format is in vivo, rat.
From the text: as §1, §2

Another data set has as its system AR42J cells. The data set is described as follows: Immunoreactive insulin release from treated AR42J cells (RIA). It counts as cell-based, rat. Here is the method: Measurement of immunoreactive insulin. AR42J cells were cultured as before in 12-well cluster plates. When cells reached 60% confluence, they were treated with GLP-1 for 3 days. At the beginning of the experiments, an aliquot of the medium was taken in order to assay the insulin accumulation in the medium. Then the cells were twice washed with Kreb's Ringer Balanced Buffer (KRBB) and incubated in the same buffer containing 10 mM glucose for another 1 h. The medium was collected and kept at −20° C. until insulin levels were assayed by RIA (See Example 1; Wang et al., Endocrinology, 1995). The cells were washed with PBS and detached with 0.25% typsin and 0.02% EDTA. The cell pellet was collected and lysed with formic acid for protein determination by the Bradford method (Bradford, 1976), using bovine-globulin as standard.

The subject of another data set is non-diabetic mice. The data set is described as follows: Daily ip exendin-4 in non-diabetic littermates. The format is in vivo, mouse. An excerpt:
Animals. Four month old Wistar rats from the Wistar colony in the NIA (Baltimore, Md.) were used for the acute experiments of the effects of exendin-4 and GLP-1 (see Example 1). They had been maintained on standard lab chow and fed ad libitum. For the long-term experiments, diabetic mice (C57BLKS/J-Lepr^db/Lepr^db) lacking the leptin receptor, and their non-diabetic littermates were purchased at 4 weeks of age from Jackson Laboratories (Bar Harbor, Me.). They were housed two per cage and also were fed ad libitum. The same mice were caged together for the duration of the study. Wistar rats are caged on wire while the bedding for the mice was a paper based product, “Carefresh” (Absorption Co., Bellingham, Wash.).
Eleven diabetic and 10 non-diabetic animals received […] exendin-4 ip daily thereafter (7–9 am) while 10 diabetic and 10 non-diabetic animals received ip NaCl. Subsequently, whole blood glucose levels, taken from a retro-orbital sinus, were determined in the mice using a Glucometer Elite (Bayer). This regimen was continued for 12–13 weeks. […] Animals were weighed weekly. After one week of the regimen blood samples were again taken from a retro-orbital sinus for determination of insulin and glucose levels. At the end of the regimen, fasting blood samples were obtained for glucose and insulin levels and whole blood containing EDTA was assayed for hemoglobin A1c (Hb A1c) on the same day from the four groups.
(§3) Assays. Plasma glucose was measured by the glucose oxidase method (Wang et al., 1997). Insulin was measured by RIA as previously described (See Example 1). Hb A1c was assayed using a BIO-RAD (Herculas Calif.) DiaSTAT machine which uses low pressure cation exchange chromatography in conjunction with gradient elution to separate hemoglobin subtypes and variants from hemolyzed blood. The separated hemoglobin fractions were monitored by means of absorption of light at 415 nm.

The subject of a further data set is diabetic mice. The data set is described as follows: Five-day daily ip exendin-4 in 14 weeks old diabetic mice. Conditions: 24 nmol/kg ip daily. It counts as in vivo, mouse. How it is done: In another group of eight diabetic mice 14 weeks old we gave 24 nmol/kg exendin-4 ip daily and NaCl ip daily for five days to four each of the group.
as §3

Regarding `CC[C@H](C)[C@H](NC(=O)[C@H](Cc1ccccc1)NC(=O)[C@H](CCC(=O)O)NC(=O)[C@H](CCCCN)NC(=O)[C@H](C)NC(=O)[C@H](C)NC(=O)[C@H](CCC(N)=O)NC(=O)CNC(=O)[C@H](CCC(=O)O)NC(=O)[C@H](CC(C)C)NC(=O)[C@H](Cc1ccc(O)cc1)NC(=O)[C@H](CO)NC(=O)[C@H](CO)NC(=O)[C@@H](NC(=O)[C@H](CC(=O)O)NC(=O)[C@H](CO)NC(=O)[C@@H](NC(=O)[C@H](Cc1ccccc1)NC(=O)[C@@H](NC(=O)CNC(=O)[C@H](CCC(=O)O)NC(=O)[C@H](C)NC(=O)[C@@H](N)Cc1c[nH]cn1)[C@@H](C)O)[C@@H](C)O)C(C)C)C(=O)N[C@@H](C)C(=O)N[C@@H](Cc1c[nH]c2ccccc12)C(=O)N[C@@H](CC(C)C)C(=O)N[C@H](C(=O)N[C@@H](CCCCN)C(=O)NCC(=O)N[C@@H](CCCNC(=N)N)C(N)=O)C(C)C` [GLP-1], the “insulin mRNA vs controls” value in the data set with insulin mRNA is given as “increased”. Moreover, the “effect on decreased GLUT-2 mRNA levels” value in the data set with GLUT2 mRNA (old animals (decreased by 70% vs young controls), P<0.001) is “entirely reversed”. For the same compound, in the data set with GLUT2 mRNA (young animals), the “effect on GLUT2 mRNA levels” value is “did not significantly influence”. For the same compound, the “insulin in cell culture medium” value in the data set with AR42J cells (1 nM GLP-1 for 3 days, 60–72 h time period, mean±SD of 3 cultures) came to 5.1±0.4 pg insulin/μg protein. In the data set with AR42J cells (3 days of GLP-1, then KRBB with 10 mM glucose for 1 h, control cells zero), the “glucose-induced insulin in buffer” value turned out to be 0.65±0.15 pg insulin/μg protein.

Consider exendin-4, for which, in the data set on non-diabetic mice (12–13 weeks), the “trends in glucose and insulin” value is on record as “the same in the non-diabetic animals with exendin-4 treatment though not as dramatic”. Further, the “Hb A1c” value in the data set on non-diabetic mice (12–13 weeks, p=0.0002) came out at 3.5%. Further, the “fasting glucose level after one week of treatment” value in the data set with non-diabetic mice (NaCl-treated 135±5, p<0.05) amounted to 70 ± 25 mg/dL. Besides, the “deaths just after receiving exendin-4” value in the data set on non-diabetic mice (day eight) is reported as “two of the non-diabetic mice”. In the data set on diabetic mice (NaCl-treated 640±37), the “blood sugars after five days” value is 355 ± 21 mg/dL. The “insulin levels after five days” value in the data set on diabetic mice (NaCl-treated 1,072±54) was 6,904±705 pmol/l.

These data come from patent publication US7056734B1, “Differentiation of non-insulin producing cells into insulin producing cells by GLP-1 or exendin-4 and uses thereof” (The United States of America as represented by the …, priority 1998, dated 2006).
